Laboratory results taken from PMC11449324, “Functional comparison of human and murine equilibrative nucleobase transporter 1” (PLOS ONE, 2024).

Columns and labels:
[1] = molecular target: T1, endogenous ENBT1 expressed in MOLT-4 cells (Homo sapiens, UniProt Q8NBI5); test: [3H]6-MP uptake in MOLT-4 cells; type: cell-based; conditions: 30 μM [3H]6-MP
T1 construct: MOLT-4 cells express the SLC43A3 transcript and L1210 cells express the slc43a3 transcript; host or cells: MOLT-4
T1 sequence (Q8NBI5 1-491): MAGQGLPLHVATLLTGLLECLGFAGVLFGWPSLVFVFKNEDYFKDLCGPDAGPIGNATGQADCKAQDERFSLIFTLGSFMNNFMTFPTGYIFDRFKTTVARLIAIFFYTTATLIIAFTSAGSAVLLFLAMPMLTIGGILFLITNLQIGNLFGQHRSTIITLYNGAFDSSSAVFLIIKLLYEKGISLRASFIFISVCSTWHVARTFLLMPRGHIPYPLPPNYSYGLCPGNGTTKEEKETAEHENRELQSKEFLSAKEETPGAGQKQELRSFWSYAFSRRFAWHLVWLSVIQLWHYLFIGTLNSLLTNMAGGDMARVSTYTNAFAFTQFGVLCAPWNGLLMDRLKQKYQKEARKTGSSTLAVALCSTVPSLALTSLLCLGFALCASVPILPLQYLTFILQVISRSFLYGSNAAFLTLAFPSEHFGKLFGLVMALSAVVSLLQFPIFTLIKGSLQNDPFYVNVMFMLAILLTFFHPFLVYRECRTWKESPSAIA
Experimental: (§1) Harvested cells were suspended in nominally sodium-free N-methyl-D-glucamine (NMG) buffer (140 mM NMG, 5 mM KCl, 4.2 mM KHCO3, 0.36 mM K2HPO4, 0.44 mM KH2PO4, 0.5 mM MgCl2, 1.3 mM CaCl2, 10 mM HEPES, pH 7.4), to minimize potential contribution of sodium-dependent concentrative nucleoside transporter-mediated uptake. Additionally, cells were incubated for 15 minutes at room temperature with 10 μM dipyridamole (DY), an equilibrative nucleoside transporter (ENT) inhibitor, to block equilibrative nucleoside transporter–mediated uptake. The substrate uptake assay was initiated by adding 250 μL cell suspension to 250 μL [^3H] labeled substrate, layered over 21:4 silicone:mineral oil (200 μL) in 1.5 mL microcentrifuge tubes (conducted at room temperature). […] This is the minimum incubation time achievable with this oil-stop technique, and it was found in previous studies that these short incubation times were necessary to assess the kinetics of this transporter. […] The resulting cell pellet was digested in 250 μL 1 M NaOH overnight (~16 hours), with 220 μL aliquots of digested cells assessed for radioactive content using standard liquid scintillation counting techniques in a Beckman Coulter LS6500 scintillation system (Brea, CA).
(§2) In transfected-HEK293 cell lines, total uptake was defined as uptake of radiolabeled substrate in cells overexpressing recombinant hENBT1 or mENBT1. […] ENBT1-mediated uptake was calculated as total uptake minus the non-mediated uptake.
(§3) Cell water volume (μL) was estimated by incubating cells with ^3H2O for 3 minutes, centrifuging the cells through the oil layer at ~10,000 g, assessing 100 μL of the supernatant for radioactive content, and then processing as described above. Total cellular water volume was determined from the ratio of the decays per minute of the cell pellet, to the decays per minute of the supernatant, allowing for inter-experimental normalization via calculation of picomoles of substrate accumulated per microliter of cell-associated water.

[2] = molecular target: T2, endogenous ENBT1 expressed in L1210 cells (Mus musculus, UniProt A2AVZ9); test: [3H]6-MP uptake in L1210 cells; type: cell-based, murine; conditions: 30 μM [3H]6-MP
T2 construct: MOLT-4 cells express the SLC43A3 transcript and L1210 cells express the slc43a3 transcript; host or cells: L1210
T2 sequence (A2AVZ9 1-502): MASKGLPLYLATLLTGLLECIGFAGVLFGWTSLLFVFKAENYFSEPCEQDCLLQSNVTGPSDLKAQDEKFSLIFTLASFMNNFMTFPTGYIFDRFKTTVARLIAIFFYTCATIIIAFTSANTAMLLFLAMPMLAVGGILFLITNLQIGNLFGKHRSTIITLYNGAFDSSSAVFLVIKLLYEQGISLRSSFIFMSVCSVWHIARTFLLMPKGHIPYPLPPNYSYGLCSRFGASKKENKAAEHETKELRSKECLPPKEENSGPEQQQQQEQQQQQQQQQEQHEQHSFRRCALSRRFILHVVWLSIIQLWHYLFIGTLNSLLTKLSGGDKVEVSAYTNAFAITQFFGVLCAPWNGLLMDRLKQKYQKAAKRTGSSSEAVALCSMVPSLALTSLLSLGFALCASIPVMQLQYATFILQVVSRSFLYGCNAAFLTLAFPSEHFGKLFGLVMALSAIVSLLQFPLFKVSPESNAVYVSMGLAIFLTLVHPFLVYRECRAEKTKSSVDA
Experimental: as §1, §2, §3

SMILES | k value of time-dependent uptake [1] | uptake plateau [1] | k value of time-dependent uptake [2] | uptake plateau [2] | effect on uptake of [3H]6-MP ([1]; 5 mM adenine) | effect on uptake of [3H]6-MP ([2]; 5 mM adenine)
Sc1ncnc2nc[nH]c12 [6-MP, 6-Mercaptopurine] | 0.34 ± 0.09 s⁻¹ | roughly 30 pmol/μL | 0.22 ± 0.05 s⁻¹ | roughly 30 pmol/μL | – | –
Nc1ncnc2[nH]cnc12 [adenine, Adenine] | – | – | – | – | significantly inhibited | significantly inhibited
